Where “and” joins values, the source holds several entries; their conditions need not be identical. Identical values can stand only once.
Columns and labels:
[1] = set-up: method as in PMID 36431759; conditions: cited from earlier work
[2] = Enthalpy-entropy compensation analysis; type: physicochemical; conditions: all {DMSO (1) + H2O (2)} mixes, neat DMSO and H2O, Thm = 308 K
Excerpt: An enthalpy–entropy compensation analysis was used, as previously described, to evaluate the solvation behavior of ITN (3) in numerous mixes of {DMSO (1) + H2O (2)}. Weighted curves of ΔsolH° vs. ΔsolG° were generated at Thm = 308 K for this experiment.

[3] = Shake flask solubility of ITN in {DMSO (1) + H2O (2)} mixes, HPLC; type: physicochemical; conditions: 101.1 kPa
Experimental: A series of {DMSO (1) + H2O (2)} solutions, with DMSO mass percentages ranging from 0.10 to 0.90, was examined. Three replicates of each {DMSO (1) + H2O (2)} combination were taken. ITN’s mole fraction solubility versus mass fraction of DMSO (m = 0.0–1.0) and neat DMSO and H2O was measured using a shake flask approach at 298.2–318.2 K and 101.1 kPa. In essence, the known amounts of each {DMSO (1) + H2O (2)} combination and neat DMSO and H2O were combined with extra ITN crystals in triplicate. The equilibrium was achieved by saturating the resultant mixes in a WiseBath® WSB shaking water bath (Model WSB-18/30/-45, Daihan Scientific Co. Ltd., Seoul, Korea) at a shaking speed of 100 rpm for 72 h. In order to evaluate the equilibrium time, the preliminary experiments were performed at different time intervals. […] The saturated solutions were again removed from the shaker after they had reached equilibrium and centrifuged for 30 min at 5000 rpm. A previously established environmentally friendly HPLC method was used to assess the ITN content after the supernatants were isolated and diluted (as required). The identification of ITN was carried out via a Nucleodur (dimensions: 150 mm × 4.6 mm and particle size: 5 μm) reversed-phase C18 analytical column at 298.2 K. The environmentally friendly mobile used was a binary mixture of ethyl acetate and ethanol (50:50% v v^−1). The mobile phase was delivered with a flow speed of 1 mL min^−1. The ITN measurements were performed at a wavelength of 354 nm. The sample volume was 20 μL, which was injected using a Waters autosampler. The Analytical GREEnness (AGREE) score was determined to evaluate the eco-friendliness nature of the HPLC method. The AGREE score was predicted to be 0.76 for the present HPLC method, indicating the eco-friendly nature of the HPLC method. ITN mole fraction solubilities (xe) were calculated using their standard formulae described in our previous work.

SMILES: CC1=C(/C=C/C(C)=C/C=C/C(C)=C\C(=O)O)C(C)(C)CCC1 [ITN, isotretinoin]
- total HSP (δt) [1]: 19.30 MPa^1/2
- solvation driven mechanism [2]: enthalpy-driven
- xe experimental solubility ([3]; DMSO mass fraction m = 0.0, T = 298.2 K): 3.10 (0.07) × 10^−7 mole fraction
- xe experimental solubility ([3]; DMSO mass fraction m = 0.0, T = 303.2 K): 4.60 (0.15) × 10^−7 mole fraction
- xe experimental solubility ([3]; DMSO mass fraction m = 0.0, T = 308.2 K): 7.50 (0.18) × 10^−7 mole fraction
- xe experimental solubility ([3]; DMSO mass fraction m = 0.0, T = 313.2 K): 1.10 (0.02) × 10^−6 mole fraction
- xe experimental solubility ([3]; DMSO mass fraction m = 0.0, T = 318.2 K): 1.50 (0.03) × 10^−6 mole fraction
- xe experimental solubility ([3]; DMSO mass fraction m = 0.1, T = 298.2 K): 1.12 (0.02) × 10^−6 mole fraction
- xe experimental solubility ([3]; DMSO mass fraction m = 0.1, T = 303.2 K): 1.59 (0.03) × 10^−6 mole fraction
- xe experimental solubility ([3]; DMSO mass fraction m = 0.1, T = 308.2 K): 2.45 (0.05) × 10^−6 mole fraction
- xe experimental solubility ([3]; DMSO mass fraction m = 0.1, T = 313.2 K): 3.47 (0.06) × 10^−6 mole fraction
- xe experimental solubility ([3]; DMSO mass fraction m = 0.1, T = 318.2 K): 4.61 (0.11) × 10^−6 mole fraction
- xe experimental solubility ([3]; DMSO mass fraction m = 0.2, T = 298.2 K): 3.83 (0.08) × 10^−6 mole fraction
- xe experimental solubility ([3]; DMSO mass fraction m = 0.2, T = 303.2 K): 5.28 (0.17) × 10^−6 mole fraction
- xe experimental solubility ([3]; DMSO mass fraction m = 0.2, T = 308.2 K): 7.87 (0.21) × 10^−6 mole fraction
- xe experimental solubility ([3]; DMSO mass fraction m = 0.2, T = 313.2 K): 1.10 (0.01) × 10^−5 mole fraction
- xe experimental solubility ([3]; DMSO mass fraction m = 0.2, T = 318.2 K): 1.42 (0.02) × 10^−5 mole fraction
- xe experimental solubility ([3]; DMSO mass fraction m = 0.3, T = 298.2 K): 1.36 (0.01) × 10^−5 mole fraction
- xe experimental solubility ([3]; DMSO mass fraction m = 0.3, T = 303.2 K): 1.82 (0.03) × 10^−5 mole fraction
- xe experimental solubility ([3]; DMSO mass fraction m = 0.3, T = 308.2 K): 2.57 (0.04) × 10^−5 mole fraction
- xe experimental solubility ([3]; DMSO mass fraction m = 0.3, T = 313.2 K): 3.43 (0.06) × 10^−5 mole fraction
- xe experimental solubility ([3]; DMSO mass fraction m = 0.3, T = 318.2 K): 4.29 (0.07) × 10^−5 mole fraction
- xe experimental solubility ([3]; DMSO mass fraction m = 0.4, T = 298.2 K): 4.68 (0.07) × 10^−5 mole fraction
- xe experimental solubility ([3]; DMSO mass fraction m = 0.4, T = 303.2 K): 6.06 (0.08) × 10^−5 mole fraction
- xe experimental solubility ([3]; DMSO mass fraction m = 0.4, T = 308.2 K): 8.23 (0.10) × 10^−5 mole fraction
- xe experimental solubility ([3]; DMSO mass fraction m = 0.4, T = 313.2 K): 1.08 (0.01) × 10^−4 mole fraction
- xe experimental solubility ([3]; DMSO mass fraction m = 0.4, T = 318.2 K): 1.32 (0.02) × 10^−4 mole fraction
- xe experimental solubility ([3]; DMSO mass fraction m = 0.5, T = 298.2 K): 1.65 (0.04) × 10^−4 mole fraction
- xe experimental solubility ([3]; DMSO mass fraction m = 0.5, T = 303.2 K): 2.05 (0.05) × 10^−4 mole fraction
- xe experimental solubility ([3]; DMSO mass fraction m = 0.5, T = 308.2 K): 2.69 (0.06) × 10^−4 mole fraction
- xe experimental solubility ([3]; DMSO mass fraction m = 0.5, T = 313.2 K): 3.31 (0.07) × 10^−4 mole fraction
- xe experimental solubility ([3]; DMSO mass fraction m = 0.5, T = 318.2 K): 3.96 (0.08) × 10^−4 mole fraction
- xe experimental solubility ([3]; DMSO mass fraction m = 0.6, T = 298.2 K): 5.70 (0.10) × 10^−4 mole fraction
- xe experimental solubility ([3]; DMSO mass fraction m = 0.6, T = 303.2 K): 6.88 (0.12) × 10^−4 mole fraction
- xe experimental solubility ([3]; DMSO mass fraction m = 0.6, T = 308.2 K): 8.57 (0.17) × 10^−4 mole fraction
- xe experimental solubility ([3]; DMSO mass fraction m = 0.6, T = 313.2 K): 1.08 (0.01) × 10^−3 mole fraction
- xe experimental solubility ([3]; DMSO mass fraction m = 0.6, T = 318.2 K): 1.22 (0.02) × 10^−3 mole fraction
- xe experimental solubility ([3]; DMSO mass fraction m = 0.7, T = 298.2 K): 2.02 (0.03) × 10^−3 mole fraction
- xe experimental solubility ([3]; DMSO mass fraction m = 0.7, T = 303.2 K): 2.33 (0.05) × 10^−3 mole fraction
- xe experimental solubility ([3]; DMSO mass fraction m = 0.7, T = 308.2 K): 2.79 (0.06) × 10^−3 mole fraction
- xe experimental solubility ([3]; DMSO mass fraction m = 0.7, T = 313.2 K): 3.24 (0.07) × 10^−3 mole fraction
- xe experimental solubility ([3]; DMSO mass fraction m = 0.7, T = 318.2 K): 3.66 (0.08) × 10^−3 mole fraction
- xe experimental solubility ([3]; DMSO mass fraction m = 0.8, T = 298.2 K): 6.97 (0.10) × 10^−3 mole fraction
- xe experimental solubility ([3]; DMSO mass fraction m = 0.8, T = 303.2 K): 7.81 (0.12) × 10^−3 mole fraction
- xe experimental solubility ([3]; DMSO mass fraction m = 0.8, T = 308.2 K): 8.96 (0.20) × 10^−3 mole fraction
- xe experimental solubility ([3]; DMSO mass fraction m = 0.8, T = 313.2 K): 1.02 (0.01) × 10^−2 mole fraction
- xe experimental solubility ([3]; DMSO mass fraction m = 0.8, T = 318.2 K): 1.15 (0.01) × 10^−2 mole fraction
- xe experimental solubility ([3]; DMSO mass fraction m = 0.9, T = 298.2 K): 2.44 (0.02) × 10^−2 mole fraction
- xe experimental solubility ([3]; DMSO mass fraction m = 0.9, T = 303.2 K): 2.66 (0.03) × 10^−2 mole fraction
- xe experimental solubility ([3]; DMSO mass fraction m = 0.9, T = 308.2 K): 2.86 (0.03) × 10^−2 mole fraction
- xe experimental solubility ([3]; DMSO mass fraction m = 0.9, T = 313.2 K): 3.19 (0.04) × 10^−2 mole fraction
- xe experimental solubility ([3]; DMSO mass fraction m = 0.9, T = 318.2 K): 3.39 (0.05) × 10^−2 mole fraction
- xe experimental solubility ([3]; DMSO mass fraction m = 1.0, T = 298.2 K): 8.47 (0.10) × 10^−2 mole fraction
- xe experimental solubility ([3]; DMSO mass fraction m = 1.0, T = 303.2 K): 8.88 (0.11) × 10^−2 mole fraction
- xe experimental solubility ([3]; DMSO mass fraction m = 1.0, T = 308.2 K): 9.31 (0.12) × 10^−2 mole fraction
- xe experimental solubility ([3]; DMSO mass fraction m = 1.0, T = 313.2 K): 9.80 (0.13) × 10^−2 mole fraction
- xe experimental solubility ([3]; DMSO mass fraction m = 1.0, T = 318.2 K): 1.02 × 10^−1 mole fraction and 1.02 (0.01) × 10^−1 mole fraction

Source: paper PMC10609013, “Solubility and Thermodynamic Analysis of Isotretinoin in Different (DMSO + Water) Mixtures” (Molecules, 2023)
